The results in this text go back to ChEMBL document CHEMBL4706558, “Factor XII/XIIa inhibitors: Their discovery, development, and potential indications” (Eur J Med Chem, 2020).

Experiment [1] has as its target T1, Coagulation factor XII (Homo sapiens, UniProt P00748).
T1 sequence (P00748 whole entry): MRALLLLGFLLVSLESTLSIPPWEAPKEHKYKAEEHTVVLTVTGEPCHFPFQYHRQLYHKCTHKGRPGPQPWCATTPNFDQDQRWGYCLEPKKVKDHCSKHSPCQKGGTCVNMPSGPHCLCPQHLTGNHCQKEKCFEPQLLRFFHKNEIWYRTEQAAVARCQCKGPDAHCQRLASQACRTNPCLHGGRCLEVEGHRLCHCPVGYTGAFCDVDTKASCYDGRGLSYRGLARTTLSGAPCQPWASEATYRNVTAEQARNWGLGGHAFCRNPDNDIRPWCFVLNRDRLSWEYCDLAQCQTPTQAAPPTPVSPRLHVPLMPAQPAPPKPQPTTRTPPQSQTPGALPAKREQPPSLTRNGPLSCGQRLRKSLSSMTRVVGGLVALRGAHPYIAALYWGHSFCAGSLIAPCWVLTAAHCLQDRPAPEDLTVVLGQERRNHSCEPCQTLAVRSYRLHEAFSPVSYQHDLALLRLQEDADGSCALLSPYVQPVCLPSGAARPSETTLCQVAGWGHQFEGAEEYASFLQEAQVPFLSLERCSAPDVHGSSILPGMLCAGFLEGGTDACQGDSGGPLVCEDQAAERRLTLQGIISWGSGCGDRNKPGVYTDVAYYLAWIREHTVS
The experiment can be described thus: Inhibition of human factor 12a.

A short description of experiment [2]: Inhibition of bovine trypsin using chromogenic substrate by Lineweaver-Burk analysis. More on the design: species or system Bos taurus.
The target in experiment [3] is T1, Coagulation factor XII. The experiment is described as follows: Inhibition of human factor 12a using chromogenic substrate by Lineweaver-Burk analysis.
Experiment [4] can be described thus: Inhibition of bovine trypsin using BAEE as substrate by Lineweaver-Burk analysis. More on the design: species or system Bos taurus.
The target in experiment [5] is T1, Coagulation factor XII. The experiment can be described thus: Inhibition of factor 12a (unknown origin).
The target in experiment [6] is T2, Trypsin (Homo sapiens, UniProt P07477+P07478+P35030). The experiment can be described thus: Inhibition of trypsin (unknown origin). Type of experiment: protein assay.
Experiment [7] has as its target T1, Coagulation factor XII. The experiment can be described thus: Inhibition of human factor 12a using H-D-Pro-Phe-Arg-pNa as substrate by spectrophotometric method.
For experiment [8], the target named is T2, Trypsin. The experiment can be described thus: Competitive inhibition of trypsin (unknown origin) using BFSR as substrate. The experiment is classed as protein assay.
Experiment [9] has as its target T1, Coagulation factor XII. The experiment can be described thus: Non-competitive inhibition of factor 12a (unknown origin) using BQGR as substrate.

`N=C(N)Nc1ccc(OC(=O)c2cc3cc(CCl)ccc3oc2=O)cc1` yielded a half-maximal inhibitory concentration (IC50) on Coagulation factor XII [1] of 6000 nM.
As for `CCOC(=O)c1ccc(OC(=O)CCCCCNC(=N)N)cc1` [GABEXATE], the inhibitory constant (Ki) was determined as 72 nM in experiment [2] and 2920 nM at Coagulation factor XII [3].
The molecule `CCCCCCOC(=O)CCCCCN` registered an inhibitory constant (Ki) in experiment [4] of 58700 nM.
In turn, `Cc1ccc2oc(=O)c(C(=O)Nc3ccc(N)cc3)cc2c1` returned an IC50 at Coagulation factor XII [5] of 14000 nM.
As for `N=C(N)NCCCCCC(=O)Oc1ccccc1`, the Ki on Trypsin [6] is 800 nM.
On Coagulation factor XII [1], `N=C(N)Nc1ccc(NC(=O)c2cc3cc(Cl)cc(Br)c3oc2=O)cc1` showed an IC50 of 102000 nM.
With `N=C(N)Nc1ccc(C(=O)Oc2ccc3cc(C(=N)N)ccc3c2)cc1` [NAFAMOSTAT], the Ki in experiment [2] stood at 16 nM; on Coagulation factor XII [3] it was 105 nM.
As to `N=C(N)NCCC[C@H](NC(=O)[C@@H]1CCCN1C(=O)[C@H](N)Cc1ccccc1)C(=O)CCl`, the affinity at Coagulation factor XII [7], expressed as Ki, was 230 nM.
In the case of `N=C(N)c1ccc2cc(OC(=O)c3ccc(NC4=NCCN4)cc3)ccc2c1` [SEPIMOSTAT], the Ki on Trypsin [8] came to 97 nM; on Coagulation factor XII [9] it was 21 nM.
In the case of `CCCCCCOC(=O)CCCCCNC(=N)N`, the Ki on Trypsin [6] is 20000 nM.
On Coagulation factor XII [1], `Cc1ccc2oc(=O)c(C(=O)Nc3ccc(NC(=N)N)cc3)cc2c1` returned an IC50 of 150000 nM.
